Here are results for five compounds from patent US8586597B2, “6-fluoro-3-phenyl-2-[1-(9H-purin-6-ylamino)ethyl]-3H-quinazolin-4-one as an inhibitor of human phosphatidylinositol 3-kinase delta” (ICOS Corporation, priority 2004, dated 2013).

By EC50 is commonly meant the midpoint of the concentration-response curve. Lower therefore signals a more potent agent. A word on the inhibition: it is how much of the control response was suppressed.

Test [1] addresses PI3Kδ (Homo sapiens (Human), UniProt O00329). The test can be described thus: Biochemical assay of PI3K potency using 20 μM ATP (PI3Kδ). The conditions noted are these: read-out: Delta IC50. From the text:
(§1) Recombinant PI3K heterodimeric complexes consisting of a p110 catalytic subunit and a p85 regulatory subunit were overexpressed using the BAC-TO-BAC® HT baculovirus expression system (GIBCO/BRL), and then purified for use in biochemical assays. The four Class I PI 3-kinases were cloned into baculovirus vectors as follows:
p110δ: A FLAG®-tagged version of human p110δ (SEQ ID NOS: 1 and 2) (see Chantry et al., J. Biol. Chem., 272:19236-41 (1997)) was subcloned using standard recombinant DNA techniques into the BamH1-Xba1 site of the insect cell expression vector pFastbac HTb (Life Technologies, Gaithersburg, Md.), such that the clone was in frame with the His tag of the vector. The FLAG® system is described in U.S. Pat. Nos. 4,703,004; 4,782,137; 4,851,341; and 5,011,912, and reagents are available from Eastman Kodak Co.
(§2) Biochemical Assay using 20 μM ATP
Using the method described in Example 2, compounds of the invention were tested for inhibitory activity and potency against PI3Kδ, and for selectivity for PI3Kδ versus other Class I PI3K isozymes.
(§3) The initial selectivity assays were performed identically to the selectivity assay protocol in Example 2, except using 100 μL Ecoscint for radiolabel detection.
(§4) Subsequent selectivity assays were done similarly using the same 3× substrate stocks except they contained 0.05 mCi/mL γ[^32P]ATP and 3 mM PIP2. Subsequent selectivity assays also used the same 3× enzyme stocks, except they now contained 3 nM of any given PI3K isoform.
(§5) For all selectivity assays, the test compounds were weighed out and dissolved into 10-50 mM stocks in 100% DMSO (depending on their respective solubilities) and stored at −20° C. Compounds were thawed (to room temperature or 37° C.), diluted to 300 μM in water from which a 3-fold dilution series into water was done. From these dilutions, 20 μL was added into the assay wells alongside water blanks used for the enzyme (positive) control and the no enzyme (background) control. The remainder of the assay was performed essentially according to the selectivity assay protocol in Example 2.

Test [2] concerns the target PI3Kα (Homo sapiens (Human), UniProt P42336). The test can be described thus: Biochemical assay of PI3K selectivity (PI3Kα). The conditions noted are these: ratio of IC50 for PI3Kα relative to PI3Kδ.
Text: as §1
p110α: Similar to the method used for p110δ, described above, a FLAG®-tagged version of p110α (see Volinia et al., Genomics, 24(3):427-77 (1994)) was subcloned in BamH1-HindIII sites of pFastbac HTb (Life Technologies) such that the clone was in frame with the His tag of the vector.
as §2
(§6) Using the method described in Example 2, compounds of the invention were tested for inhibitory activity and potency against PI3Kδ, and for selectivity for PI3Kδ versus other Class I PI3K isozymes. In Table 1, IC50 values (μM) are given for PI3Kδ (“Delta”), and may be calculated for the other isoforms using the ratios of IC50 values discussed below. To illustrate selectivity of the compounds, the ratios of the IC50 values of the compounds for PI3Kα, PI3Kβ, and PI3Kγ relative to PI3Kδ are given, respectively, as “Alpha/Delta Ratio,” “Beta/Delta Ratio,” and “Gamma/Delta Ratio.”
as §3, §4, §5

Test [3] addresses PI3Kβ (Homo sapiens (Human), UniProt P42338). Put plainly: Biochemical assay of PI3K selectivity (PI3Kβ). The conditions noted are these: ratio of IC50 for PI3Kβ relative to PI3Kδ.
Text: as §1
p110β: A p110β (see Hu et al., Mol. Cell. Biol., 13:7677-88 (1993)) clone was amplified from the human MARATHON® Ready spleen cDNA library (Clontech, Palo Alto Calif.) according to the manufacturer's protocol using the following primers: […]
as §2, §6, §3, §4, §5

Test [4] deals with PI3Kγ (Homo sapiens (Human), UniProt P48736). Put plainly: Biochemical assay of PI3K selectivity (PI3Kγ). The conditions noted are these: ratio of IC50 for PI3Kγ relative to PI3Kδ.
Chain of PI3Kγ (P48736 whole entry): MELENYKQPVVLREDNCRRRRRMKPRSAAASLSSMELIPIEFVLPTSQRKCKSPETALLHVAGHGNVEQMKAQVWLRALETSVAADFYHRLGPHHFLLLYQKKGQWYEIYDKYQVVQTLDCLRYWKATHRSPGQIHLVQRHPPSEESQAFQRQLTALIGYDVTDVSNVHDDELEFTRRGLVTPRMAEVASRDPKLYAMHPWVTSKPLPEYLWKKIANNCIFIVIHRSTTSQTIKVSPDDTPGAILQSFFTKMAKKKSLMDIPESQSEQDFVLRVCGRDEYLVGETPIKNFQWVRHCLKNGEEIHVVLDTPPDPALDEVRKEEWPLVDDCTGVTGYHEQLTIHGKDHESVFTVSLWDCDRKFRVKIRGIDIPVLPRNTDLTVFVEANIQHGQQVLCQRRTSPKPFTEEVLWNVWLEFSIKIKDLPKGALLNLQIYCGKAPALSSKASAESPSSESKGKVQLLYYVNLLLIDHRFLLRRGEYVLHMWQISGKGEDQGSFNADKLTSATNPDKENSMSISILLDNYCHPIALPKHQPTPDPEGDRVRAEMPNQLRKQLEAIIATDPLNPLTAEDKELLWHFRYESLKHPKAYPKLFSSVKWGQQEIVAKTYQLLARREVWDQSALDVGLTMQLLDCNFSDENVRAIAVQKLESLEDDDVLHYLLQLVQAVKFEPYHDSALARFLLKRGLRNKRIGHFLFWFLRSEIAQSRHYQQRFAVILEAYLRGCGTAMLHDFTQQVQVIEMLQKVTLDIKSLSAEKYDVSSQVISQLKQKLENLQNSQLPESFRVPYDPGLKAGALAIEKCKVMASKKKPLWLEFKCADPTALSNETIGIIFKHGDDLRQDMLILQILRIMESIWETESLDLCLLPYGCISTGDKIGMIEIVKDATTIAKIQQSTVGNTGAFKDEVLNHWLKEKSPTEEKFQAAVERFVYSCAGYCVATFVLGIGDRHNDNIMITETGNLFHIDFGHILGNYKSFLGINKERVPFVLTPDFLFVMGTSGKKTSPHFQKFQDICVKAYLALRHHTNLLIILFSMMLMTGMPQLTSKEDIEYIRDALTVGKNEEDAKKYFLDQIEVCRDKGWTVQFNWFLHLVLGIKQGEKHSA
Text: p110γ: The p110γ cDNA (see Stoyanov et al., Science, 269:690-93 (1995)) was amplified from a human Marathon Ready spleen cDNA library (Clontech) according to the manufacturer's protocol using the following primers: […]
Recombinant baculoviruses containing the above clones were generated using manufacturer's recommended protocol (Life Technologies). Baculoviruses expressing His-tagged p110α, p110β, or p110δ catalytic subunit and p85 subunit were coinfected into Sf21 insect cells. To enrich the heterodimeric enzyme complex, an excess amount of baculovirus expressing p85 subunit was infected, and the His-tagged p110 catalytic subunit complexed with p85 was purified on nickel affinity column. […] In an alternate approach, p101 can be cloned into baculovirus, to permit coexpression with its preferred binding partner p110γ.
as §2, §6, §3, §4, §5

In test [5] the test system is human neutrophils (PMN). Put plainly: Neutrophil (PMN) elastase release (fMLP-induced elastase exocytosis). It counts as cell-based. As to the method: Aliquots (8 mL) of heparinized blood from healthy volunteers are layered on 3 mL cushions of 7.3% FICOLL® (Sigma, St. Louis, Mo.) and 15.4% HYPAQUE® (Sigma) and centrifuged at 900 rpm for 30 min at room temperature in a table top centrifuge (Beckman). The neutrophil-rich band just above the FICOLL®-HYPAQUE® cushion is collected and washed with Hanks' balanced salt solution (HESS) containing 0.1% gelatin. Residual erythrocytes are removed by, hypotonic lysis with 0.2% NaCl. The neutrophil preparation is washed twice with HESS containing 0.1% gelatin and used immediately.
In addition to superoxide generation, activated neutrophils also respond by releasing several proteases that are responsible for the destruction of tissues and cartilage during inflammation. As an indication of protease release, the effect of present compound on elastase exocytosis is measured. Elastase exocytosis is quantitated by modification of the procedure described by Ossanna et al. (J. Clin. Invest., 77:1939-51 (1986)), as follows. Purified human neutrophils (0.2×10^6) (treated with either DMSO or a serial dilution of a present compound in DMSO) are stimulated with fMLP in PBS containing 0.01 mg/mL cytochalasin B, 1.0 μM sodium azide (NaN3), 5 μg/mL L-methionine and 1 μM fMLP for 90 min at 37° C. in a 96-well plate. At the end of the incubation period, the plate is centrifuged for 5 min at 1000 rpm, and 90 μL of the supernatant is transferred to 10 μL of 10 mM solution of an elastase substrate peptide, MeO-suc-Ala-Ala-Pro-Val-pNA, wherein MeO-suc=methoxy-succinyl; pNA=p-nitroanilide (Calbiochem, San Diego, Calif.). Absorbance at 410 nm is monitored for 2 hr in a 96-well plate reader. To measure the relative amounts of elastase excytosed, all absorbance values are normalized to the values without any inhibitor.
Using the methods described in Example 2, compounds of the invention were tested for inhibitory activity and potency in an assay of neutrophil (PMN) elastase release. In Table 1, the values shown are effective concentrations of the compound (EC50; μM).

The subject of test [6] is Human B Lymphocyte. Put plainly: Human B lymphocyte assay. It counts as cell-based.
Description: Heparinized blood (200 mL) from healthy volunteers is mixed with an equal volume of D-PBS, layered on 10×10 mL FICOLL-PAQUE® (Pharmacia), and centrifuged at 1600 rpm for 30 min at room temperature. Peripheral blood mononuclear cells (PBMC) are collected from the FICOLL®/serum interface, overlayed on 10 mL fetal bovine serum (FBS) and centrifuged at 800 rpm for 10 min to remove platelets. After washing, cells are incubated with DYNAL® Antibody Mix (B cell kit) (Dynal Corp., Lake Success, N.Y.) for 20 min at 4-8° C. Following the removal of unbound antibody, PBL are mixed with anti-mouse IgG coated magnetic beads (Dynal) for 20 min at 4-8° C. with gentle shaking followed by elimination of labeled non-B cells on the magnetic bead separator. This procedure is repeated once more. The B cells are resuspended in RPMI-1640 with 10% FBS, and kept on ice until further use.
To study antibody production, B cells are aliquoted at 50−75×10^3 cells/well into 96-well plate with or without inhibitor, to which IL-2 (100 U/mL) and PANSORBIN® (Calbiochem) Staphylococcus aureus cells (1:90,000) were added. Part of the media is removed after 24-36 hr, and fresh media (with or without inhibitor) and IL-2 is added. Cultures are incubated at 37° C., in the presence of a CO2 incubator for additional 7 days. Samples from each condition (in triplicate) are removed, and analyzed for IgG and IgM, as measured by ELISA. Briefly, IMMULON® 4 96-well plates are coated (50 μL/well) with either 150 ng/mL donkey antihuman IgG (H+L) (Jackson ImmunoResearch, West Grove Pa.), or 2 μg/mL donkey antihuman IgG+IgM (H+L) (Jackson ImmunoResearch) in bicarbonate buffer, and left overnight at 4° C. After washing three times with phosphate buffered saline containing 0.1% TWEEN®-80 (PBST) (350 μL/well), and blocking with 3% goat serum in PEST (100 μL/well) for 1 hr at room temperature, samples (100 μL/well) of B cell spent media diluted in PBST are added. […] Color development is stopped by H2SOa solution, and plates were read on an ELISA plate reader.
Test [7] deals with basophils. Put plainly: Basophil histamine release assay. The conditions noted are these: highest concentration, 10,000 nM. The class given is cell-based. As to the method:
Assessment of the effect of a compound of the invention on basophil function is tested using a conventional histamine release assay, generally in accordance with the method described in Miura et al., J. Immunol., 162:4198-206 (1999). Briefly, enriched basophils are preincubated with test compounds at several concentrations from 0.1 nM to 1,000 nM for 10 min at 37° C. Then, polyclonal goat antihuman IgE (0.1 μg/mL) or fMLP is added, and allowed to incubate for an additional 30 min. Histamine released into the supernatant is measured using an automated fluorometric technique.

Chain of PI3Kβ (P42338 2-1070): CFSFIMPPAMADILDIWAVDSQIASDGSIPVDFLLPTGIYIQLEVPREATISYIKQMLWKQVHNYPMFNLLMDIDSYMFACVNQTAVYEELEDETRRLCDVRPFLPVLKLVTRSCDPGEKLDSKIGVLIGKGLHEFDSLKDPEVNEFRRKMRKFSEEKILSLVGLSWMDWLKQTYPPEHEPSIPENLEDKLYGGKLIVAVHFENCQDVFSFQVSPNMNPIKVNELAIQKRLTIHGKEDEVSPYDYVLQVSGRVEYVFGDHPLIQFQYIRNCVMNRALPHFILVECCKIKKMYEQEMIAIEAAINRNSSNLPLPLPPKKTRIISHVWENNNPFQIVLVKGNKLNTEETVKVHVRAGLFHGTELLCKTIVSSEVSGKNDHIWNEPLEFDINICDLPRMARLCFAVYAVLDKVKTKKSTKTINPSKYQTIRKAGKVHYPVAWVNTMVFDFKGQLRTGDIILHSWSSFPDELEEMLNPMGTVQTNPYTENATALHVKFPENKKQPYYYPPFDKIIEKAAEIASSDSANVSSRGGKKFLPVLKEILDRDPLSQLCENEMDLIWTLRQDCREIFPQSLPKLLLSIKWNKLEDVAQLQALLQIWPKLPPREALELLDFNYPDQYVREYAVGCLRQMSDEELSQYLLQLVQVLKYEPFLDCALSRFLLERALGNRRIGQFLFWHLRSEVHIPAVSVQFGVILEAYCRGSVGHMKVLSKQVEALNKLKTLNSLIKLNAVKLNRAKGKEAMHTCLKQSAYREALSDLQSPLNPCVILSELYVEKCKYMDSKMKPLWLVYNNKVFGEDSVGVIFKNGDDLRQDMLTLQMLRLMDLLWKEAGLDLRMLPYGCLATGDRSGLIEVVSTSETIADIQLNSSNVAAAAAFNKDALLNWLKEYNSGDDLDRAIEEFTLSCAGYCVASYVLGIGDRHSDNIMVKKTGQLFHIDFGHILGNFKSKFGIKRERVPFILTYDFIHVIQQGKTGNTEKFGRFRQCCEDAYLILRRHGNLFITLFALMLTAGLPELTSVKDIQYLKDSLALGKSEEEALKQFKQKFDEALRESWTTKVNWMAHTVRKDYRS
Chain of PI3Kβ (P27986 whole entry partner): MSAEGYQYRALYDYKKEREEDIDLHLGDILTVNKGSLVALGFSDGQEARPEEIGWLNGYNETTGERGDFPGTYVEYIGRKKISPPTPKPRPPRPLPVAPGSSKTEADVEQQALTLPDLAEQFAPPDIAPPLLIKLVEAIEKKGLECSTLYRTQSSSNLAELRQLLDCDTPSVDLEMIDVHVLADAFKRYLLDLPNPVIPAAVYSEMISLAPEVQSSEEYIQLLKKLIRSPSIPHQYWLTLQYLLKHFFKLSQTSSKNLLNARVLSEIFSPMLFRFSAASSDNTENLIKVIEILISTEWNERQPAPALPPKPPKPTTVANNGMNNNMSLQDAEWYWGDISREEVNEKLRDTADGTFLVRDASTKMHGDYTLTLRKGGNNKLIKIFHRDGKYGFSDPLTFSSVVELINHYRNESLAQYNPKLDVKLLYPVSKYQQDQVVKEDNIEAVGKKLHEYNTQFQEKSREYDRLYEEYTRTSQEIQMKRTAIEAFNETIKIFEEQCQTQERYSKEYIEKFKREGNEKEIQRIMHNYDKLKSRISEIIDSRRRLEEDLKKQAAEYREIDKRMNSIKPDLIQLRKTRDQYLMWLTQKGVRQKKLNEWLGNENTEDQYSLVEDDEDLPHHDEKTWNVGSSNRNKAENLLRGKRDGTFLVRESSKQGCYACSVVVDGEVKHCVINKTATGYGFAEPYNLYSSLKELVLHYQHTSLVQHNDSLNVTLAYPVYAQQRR
Chain of PI3Kα (P42336 whole entry): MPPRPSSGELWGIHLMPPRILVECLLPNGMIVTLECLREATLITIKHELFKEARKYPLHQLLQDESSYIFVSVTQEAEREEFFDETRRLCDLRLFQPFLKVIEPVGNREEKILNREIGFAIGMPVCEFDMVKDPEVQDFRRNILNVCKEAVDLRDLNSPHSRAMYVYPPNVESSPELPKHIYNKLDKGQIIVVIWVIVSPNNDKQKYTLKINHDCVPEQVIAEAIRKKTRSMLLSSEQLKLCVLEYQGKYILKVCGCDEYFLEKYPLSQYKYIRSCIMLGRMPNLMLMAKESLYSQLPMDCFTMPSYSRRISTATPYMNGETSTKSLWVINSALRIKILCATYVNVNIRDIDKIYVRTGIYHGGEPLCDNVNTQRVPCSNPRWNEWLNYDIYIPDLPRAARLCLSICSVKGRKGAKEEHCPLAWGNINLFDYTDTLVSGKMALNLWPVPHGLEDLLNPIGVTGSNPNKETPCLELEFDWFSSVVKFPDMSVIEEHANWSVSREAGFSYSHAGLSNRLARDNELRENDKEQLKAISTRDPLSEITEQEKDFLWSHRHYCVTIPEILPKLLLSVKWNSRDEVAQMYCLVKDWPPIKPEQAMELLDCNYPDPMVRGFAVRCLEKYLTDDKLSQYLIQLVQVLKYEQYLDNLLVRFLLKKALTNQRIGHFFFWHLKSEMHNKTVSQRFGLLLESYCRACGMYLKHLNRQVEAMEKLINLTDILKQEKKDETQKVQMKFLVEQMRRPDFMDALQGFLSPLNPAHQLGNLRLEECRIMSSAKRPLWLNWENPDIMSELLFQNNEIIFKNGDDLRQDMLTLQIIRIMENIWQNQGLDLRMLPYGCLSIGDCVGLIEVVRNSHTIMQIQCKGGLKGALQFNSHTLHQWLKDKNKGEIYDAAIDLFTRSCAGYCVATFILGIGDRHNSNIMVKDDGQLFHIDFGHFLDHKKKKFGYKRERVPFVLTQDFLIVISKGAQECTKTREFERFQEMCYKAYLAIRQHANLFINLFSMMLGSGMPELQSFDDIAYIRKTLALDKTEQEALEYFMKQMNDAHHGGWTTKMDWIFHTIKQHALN
Chain of PI3Kα (P27986 whole entry partner): as the sequence (P27986 whole entry partner) above
Chain of PI3Kδ (O00329 whole entry S253N): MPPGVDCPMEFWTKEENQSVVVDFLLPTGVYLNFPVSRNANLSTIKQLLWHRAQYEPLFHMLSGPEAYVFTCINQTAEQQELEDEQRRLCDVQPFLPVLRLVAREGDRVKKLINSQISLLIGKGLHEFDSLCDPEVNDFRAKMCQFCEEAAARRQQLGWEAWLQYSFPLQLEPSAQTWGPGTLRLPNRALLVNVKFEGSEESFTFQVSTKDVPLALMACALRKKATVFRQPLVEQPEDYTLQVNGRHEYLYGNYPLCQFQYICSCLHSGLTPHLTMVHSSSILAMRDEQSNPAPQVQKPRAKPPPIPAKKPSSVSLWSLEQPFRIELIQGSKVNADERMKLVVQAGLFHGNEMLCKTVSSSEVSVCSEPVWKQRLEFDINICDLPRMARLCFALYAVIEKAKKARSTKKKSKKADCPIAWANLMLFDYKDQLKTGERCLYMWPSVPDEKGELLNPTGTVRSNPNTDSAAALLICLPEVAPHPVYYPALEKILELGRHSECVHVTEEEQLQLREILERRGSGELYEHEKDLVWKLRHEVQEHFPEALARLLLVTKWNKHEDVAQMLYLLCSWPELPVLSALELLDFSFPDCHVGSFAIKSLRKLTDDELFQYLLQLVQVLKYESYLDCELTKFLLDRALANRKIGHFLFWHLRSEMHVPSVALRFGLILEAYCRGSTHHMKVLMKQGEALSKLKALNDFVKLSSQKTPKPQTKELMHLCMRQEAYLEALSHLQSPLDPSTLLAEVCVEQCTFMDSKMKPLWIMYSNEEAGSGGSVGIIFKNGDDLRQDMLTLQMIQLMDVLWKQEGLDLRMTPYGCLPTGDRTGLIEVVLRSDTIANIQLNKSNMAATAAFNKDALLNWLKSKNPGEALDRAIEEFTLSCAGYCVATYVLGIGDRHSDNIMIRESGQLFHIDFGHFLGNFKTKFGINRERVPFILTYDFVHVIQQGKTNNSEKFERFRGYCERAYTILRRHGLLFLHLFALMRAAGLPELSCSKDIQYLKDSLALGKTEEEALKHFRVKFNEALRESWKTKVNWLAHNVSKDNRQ
Chain of PI3Kδ (P27986 whole entry partner): as the sequence (P27986 whole entry partner) above

With `CCC(Nc1ncnc2[nH]cnc12)c1nc2cccc(Cl)c2c(=O)n1-c1c(F)cccc1F` (stereo not drawn) [Compound 174, 5-chloro-3-(2,6-difluoro-phenyl)-2-[1-(9H-purin-6-ylamino)-propyl]-3H-quinazolin-4-one], the IC50 in test [1] worked out at 0.045 µM. Moreover, the “Alpha-Delta Ratio” value in test [2] was determined as 250. Also, the “Beta-Delta Ratio” value in test [3] was 72. In addition, in test [4], the “Gamma-Delta Ratio” value is on record as 38. Further, the EC50 in test [5] stood at 0.298 µM; in test [6], 0.0307 µM.
With `CCC(Nc1ncnc2[nH]cnc12)c1nc2ccccc2c(=O)n1-c1ccccc1` (stereo not drawn) [Compound 98, 3-phenyl-2-[1-(9H-purin-6-ylamino)-propyl]-3H-quinazolin-4-one], the IC50 in test [1] was found to be 0.016 µM. The “Alpha-Delta Ratio” value in test [2] is recorded as 608. The “Beta-Delta Ratio” value in test [3] worked out at 74. Further, in test [4], the “Gamma-Delta Ratio” value was determined as 66. The values for the concentration for a half-maximal effect (EC50) in test [5] and in test [6] were 0.084 µM and 0.0046 µM, respectively.
Consider `CCC(Nc1ncnc2[nH]cnc12)c1nc2cccc(C)c2c(=O)n1-c1cc(F)cc(F)c1` (stereo not drawn) [Compound 93, 3-(3,5-difluoro-phenyl)-5-methyl-2-[1-(9H-purin-6-ylamino)-propyl]-3H-quinazolin-4-one], for which the IC50 in test [1] turned out to be 0.026 µM. The “Alpha-Delta Ratio” value in test [2] was determined as 721. For the same compound, in test [3], the “Beta-Delta Ratio” value stood at 94. Also, in test [4], the “Gamma-Delta Ratio” value stood at 62. Also, a half-maximal response in test [5] (EC50) required 0.584 µM.
As to `O=c1cc(N2CCOCC2)oc2c(-c3ccccc3)cccc12` [LY294002], the inhibition at 10 µM in test [7] was ~100%.
As to `CC[C@H](Nc1ncnc2[nH]cnc12)c1nc2cccc(Cl)c2c(=O)n1-c1cc(F)cc(F)c1` [Compound 117, (S)-5-chloro-3-(3,5-difluoro-phenyl)-2-[1-(9H-purin-6-ylamino)-propyl]-3H-quinazolin-4-one], the IC50 in test [1] was determined as 0.012 µM. Besides, in test [2], the “Alpha-Delta Ratio” value was 662. Further, in test [3], the “Beta-Delta Ratio” value was found to be 78. The “Gamma-Delta Ratio” value in test [4] came out at 67. Also, the 50% effective concentration (EC50) was determined as 0.382 µM in test [5] and 0.0016 µM in test [6].
